Columns and labels:
Assay type in all cases: cell-based
hNaV1.1-WT = target: T1, hNaV1.1-WT (Homo sapiens, UniProt P35498); assay: Voltage step activated (peak) sodium current, PatchXpress, hNaV1.1-WT; settings: HEK293, HEK-293, steps to 0 mV from half-inactivation holding potential, read-out: hNav1.1 Peak INa (percent inhibition)
T1 construct: expressed in transfected cells; host or cells: HEK-293
Method: (§1) Functional characterization of exemplary compounds to modulate INa expressed by various human isoforms and disease-causing mutant voltage-gated sodium channels was accomplished using the PatchXpress high throughput electrophysiology platform (Molecular Devices, Sunnyvale, CA). HEK-293 cells expressing a recombinant, human NaV1.X sodium channel (either hNaV1.6-WT, hNaV1.6-R223G, hNaV1.6-N984K, hNaV1.6-N1768D, hNaV1.1-WT, hNaV1.2-WT, hNaV1.5-WT, hNaV1.7-WT, or hNaV1.8-WT) were grown in DMEM/high-glucose Dulbecco's modified, 10% FBS, 2 mM sodium pyruvate, 10 mM HEPES and 400 μg/mL G418. Cells were grown to 50%-80% confluency prior to harvesting. Trypsinized cells were washed, allowed to recover for 1 hour and then resuspended in extracellular recording solution at a concentration of 1×10^6 cells/ml. The onboard liquid handling facility of the PatchXpress was used for dispensing cells and applying test compounds. INa amplitude and stability were determined by analyzing the peak current amplitude.
(§2) Peak INa was evoked by depolarizing steps to 0 mV for 20 ms from a holding potential which evoked half-inactivation (e.g., −60 mV) at a frequency of 0.1 Hz. The voltage of half-inactivation was determined for each cell using a 5 sec prepulse to membrane potentials between −120 mV and −20 mV followed immediately by a voltage step to a fully activating membrane voltage (e.g., 0 mV). Following steady state block with exemplary compounds (e.g., as described herein), the degree of inhibition was measured using the average of three consecutive voltage steps. Percent steady-state inhibition of INa was calculated as: [(INa_compound)/(INa_control)]*100, where INa_compound and INa_control represent INa recorded in the presence or absence of compound, respectively.
(§3) In this table, “A” indicates inhibition between less than 0% to 50% and “B” indicates inhibition of greater than 50% and N/A indicates the compound was not tested.

hNaV1.2-WT = target: T2, hNaV1.2-WT (Homo sapiens, UniProt Q99250); assay: Voltage step activated (peak) sodium current, PatchXpress, hNaV1.2-WT; settings: HEK293, HEK-293, steps to 0 mV from half-inactivation holding potential, read-out: hNav1.2 Peak INa (percent inhibition)
T2 construct: expressed in transfected cells; host or cells: HEK-293
T2 sequence (Q99250 whole entry): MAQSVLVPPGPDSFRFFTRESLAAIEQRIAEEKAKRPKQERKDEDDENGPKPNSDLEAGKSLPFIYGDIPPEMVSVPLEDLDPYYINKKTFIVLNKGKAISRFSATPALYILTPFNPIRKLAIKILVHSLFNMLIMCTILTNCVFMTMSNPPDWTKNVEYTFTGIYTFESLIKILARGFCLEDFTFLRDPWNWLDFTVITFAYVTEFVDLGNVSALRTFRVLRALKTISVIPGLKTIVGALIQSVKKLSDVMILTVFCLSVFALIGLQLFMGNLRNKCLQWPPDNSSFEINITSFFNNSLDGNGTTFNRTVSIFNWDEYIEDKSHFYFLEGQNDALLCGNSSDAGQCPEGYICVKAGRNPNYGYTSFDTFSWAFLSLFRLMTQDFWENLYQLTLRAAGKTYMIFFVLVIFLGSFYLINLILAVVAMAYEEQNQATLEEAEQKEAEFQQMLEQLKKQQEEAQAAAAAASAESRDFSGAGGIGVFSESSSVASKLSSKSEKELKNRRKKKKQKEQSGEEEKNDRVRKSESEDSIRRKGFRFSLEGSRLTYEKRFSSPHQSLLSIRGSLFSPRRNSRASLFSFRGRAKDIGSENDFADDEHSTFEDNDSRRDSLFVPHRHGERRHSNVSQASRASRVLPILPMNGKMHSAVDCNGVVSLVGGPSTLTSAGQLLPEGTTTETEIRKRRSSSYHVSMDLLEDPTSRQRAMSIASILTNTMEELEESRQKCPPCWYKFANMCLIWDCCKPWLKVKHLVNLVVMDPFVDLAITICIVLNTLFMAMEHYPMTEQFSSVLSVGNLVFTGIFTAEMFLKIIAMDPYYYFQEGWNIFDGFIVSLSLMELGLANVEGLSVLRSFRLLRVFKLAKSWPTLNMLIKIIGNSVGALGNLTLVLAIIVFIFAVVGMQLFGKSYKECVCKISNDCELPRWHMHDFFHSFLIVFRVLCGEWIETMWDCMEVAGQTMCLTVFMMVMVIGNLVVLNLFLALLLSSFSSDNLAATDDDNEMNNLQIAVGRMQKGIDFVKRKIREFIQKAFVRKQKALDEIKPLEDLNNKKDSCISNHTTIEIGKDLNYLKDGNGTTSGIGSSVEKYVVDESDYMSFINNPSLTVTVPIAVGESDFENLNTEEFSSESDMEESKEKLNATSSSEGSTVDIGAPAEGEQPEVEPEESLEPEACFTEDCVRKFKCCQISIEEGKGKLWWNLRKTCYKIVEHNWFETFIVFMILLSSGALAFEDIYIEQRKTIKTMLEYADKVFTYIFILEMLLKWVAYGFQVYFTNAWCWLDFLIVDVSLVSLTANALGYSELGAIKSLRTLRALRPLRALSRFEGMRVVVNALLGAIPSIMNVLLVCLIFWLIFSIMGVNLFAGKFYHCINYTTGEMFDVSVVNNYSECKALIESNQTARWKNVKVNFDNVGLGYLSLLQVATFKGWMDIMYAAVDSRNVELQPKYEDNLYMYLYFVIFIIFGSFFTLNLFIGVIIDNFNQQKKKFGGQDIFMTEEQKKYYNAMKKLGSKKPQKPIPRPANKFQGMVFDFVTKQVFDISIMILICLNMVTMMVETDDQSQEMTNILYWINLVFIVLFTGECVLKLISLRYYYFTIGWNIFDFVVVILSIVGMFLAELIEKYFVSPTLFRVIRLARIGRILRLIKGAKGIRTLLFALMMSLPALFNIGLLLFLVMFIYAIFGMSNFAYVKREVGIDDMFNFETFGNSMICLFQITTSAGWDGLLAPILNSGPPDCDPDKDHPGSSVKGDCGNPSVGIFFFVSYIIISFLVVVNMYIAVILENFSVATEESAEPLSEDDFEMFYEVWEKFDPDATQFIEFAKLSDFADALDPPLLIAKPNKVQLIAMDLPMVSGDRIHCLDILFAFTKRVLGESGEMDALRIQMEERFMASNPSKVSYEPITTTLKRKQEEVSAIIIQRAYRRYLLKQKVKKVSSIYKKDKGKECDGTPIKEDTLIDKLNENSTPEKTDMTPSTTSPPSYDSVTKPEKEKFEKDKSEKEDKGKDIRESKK
Method: as §1, §2, §3

human NaV1.6 (hNaV1.6) = target: T3, human NaV1.6 (hNaV1.6) (Homo sapiens, UniProt Q9UQD0); assay: Late sodium current (INaL) inhibition, PatchXpress electrophysiology, hNaV1.6; settings: 1 μM; HEK-293 cells expressing hNaV1.6; late current evoked by 300 nM ATX-II
T3 construct: expressed in transfected cells; host or cells: HEK-293
T3 sequence (Q9UQD0 whole entry): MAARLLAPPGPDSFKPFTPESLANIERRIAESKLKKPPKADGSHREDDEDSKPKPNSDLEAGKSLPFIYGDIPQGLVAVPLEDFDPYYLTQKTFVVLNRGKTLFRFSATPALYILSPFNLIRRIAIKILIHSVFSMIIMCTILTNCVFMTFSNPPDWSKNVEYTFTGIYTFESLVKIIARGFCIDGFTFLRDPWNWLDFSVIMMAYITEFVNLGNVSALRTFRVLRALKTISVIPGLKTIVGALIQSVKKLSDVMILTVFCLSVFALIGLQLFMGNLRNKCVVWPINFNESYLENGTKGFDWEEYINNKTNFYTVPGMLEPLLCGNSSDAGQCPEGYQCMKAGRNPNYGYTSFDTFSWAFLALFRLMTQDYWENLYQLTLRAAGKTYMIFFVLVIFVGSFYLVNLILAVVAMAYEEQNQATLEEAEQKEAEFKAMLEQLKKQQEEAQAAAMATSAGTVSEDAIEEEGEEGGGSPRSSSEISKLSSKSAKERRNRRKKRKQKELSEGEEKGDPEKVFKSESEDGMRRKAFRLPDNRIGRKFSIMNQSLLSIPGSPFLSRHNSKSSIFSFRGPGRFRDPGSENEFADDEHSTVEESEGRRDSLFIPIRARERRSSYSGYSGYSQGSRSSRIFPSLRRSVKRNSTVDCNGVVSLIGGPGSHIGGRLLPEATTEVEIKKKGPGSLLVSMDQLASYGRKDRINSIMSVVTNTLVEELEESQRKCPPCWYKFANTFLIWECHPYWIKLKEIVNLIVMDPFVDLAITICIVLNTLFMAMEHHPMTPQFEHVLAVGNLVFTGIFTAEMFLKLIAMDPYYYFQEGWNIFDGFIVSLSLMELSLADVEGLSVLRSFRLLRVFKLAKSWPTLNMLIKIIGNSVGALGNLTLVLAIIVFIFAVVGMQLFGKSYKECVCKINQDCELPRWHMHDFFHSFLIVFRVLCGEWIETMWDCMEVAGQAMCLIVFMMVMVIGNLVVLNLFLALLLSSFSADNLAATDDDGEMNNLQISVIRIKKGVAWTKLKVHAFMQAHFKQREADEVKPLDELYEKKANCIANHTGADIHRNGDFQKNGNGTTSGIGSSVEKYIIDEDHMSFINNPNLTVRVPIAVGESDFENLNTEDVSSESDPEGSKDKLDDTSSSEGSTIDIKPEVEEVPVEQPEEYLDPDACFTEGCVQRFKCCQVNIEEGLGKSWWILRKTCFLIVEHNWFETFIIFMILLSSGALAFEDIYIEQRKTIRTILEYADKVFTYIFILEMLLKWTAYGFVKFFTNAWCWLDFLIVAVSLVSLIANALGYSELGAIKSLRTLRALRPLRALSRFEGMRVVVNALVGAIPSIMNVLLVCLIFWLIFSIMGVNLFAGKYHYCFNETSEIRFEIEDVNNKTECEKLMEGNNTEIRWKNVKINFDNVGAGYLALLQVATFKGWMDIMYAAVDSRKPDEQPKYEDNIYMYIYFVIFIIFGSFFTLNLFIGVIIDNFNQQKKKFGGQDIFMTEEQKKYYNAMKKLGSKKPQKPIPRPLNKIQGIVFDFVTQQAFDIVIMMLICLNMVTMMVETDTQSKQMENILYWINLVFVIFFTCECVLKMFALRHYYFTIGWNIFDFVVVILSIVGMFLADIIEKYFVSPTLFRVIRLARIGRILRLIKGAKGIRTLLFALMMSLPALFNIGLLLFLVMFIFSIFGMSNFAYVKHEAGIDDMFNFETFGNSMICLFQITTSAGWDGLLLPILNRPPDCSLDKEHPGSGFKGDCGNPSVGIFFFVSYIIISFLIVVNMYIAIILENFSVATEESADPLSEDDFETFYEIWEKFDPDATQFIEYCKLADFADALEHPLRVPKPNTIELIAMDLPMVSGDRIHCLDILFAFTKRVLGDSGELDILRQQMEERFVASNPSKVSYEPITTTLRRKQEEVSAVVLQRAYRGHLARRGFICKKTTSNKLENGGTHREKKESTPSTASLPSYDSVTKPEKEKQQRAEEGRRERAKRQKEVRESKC
Method: HEK-293 cells expressing recombinant, human NaV1.6 (hNaV1.6) were grown in DMEM/high-glucose Dulbecco's modified, 10% FBS, 2 mM sodium pyruvate, 10 mM HEPES and 400 μg/mL G418. Cells were grown to 50%-80% confluency prior to harvesting. […] The onboard liquid handling facility of the PatchXpress was used for dispensing cells and applying test compounds. […] INaL was evoked by depolarizing pulses to 0 mV for 200 ms from a non-inactivating holding potential (e.g., −120 mV) at a frequency of 0.1 Hz. INaL amplitude and stability were determined by analyzing the mean current amplitude over the final 20 ms of the test pulse. […] Percent steady-state inhibition of INaL was calculated as: [(INaL_compound)/(INaL_control)]*100, where INaL_compound and INaL_control represent INaL recorded in the presence or absence of compound, respectively.

SMILES | inhibition at 1 µM (hNaV1.1-WT) [%] | inhibition at 1 µM (hNaV1.2-WT) [%] | NaV 1.6 Assay Data (percent inhibition of INaL at hNaV1.6) (human NaV1.6 (hNaV1.6))
CCOC(F)(F)c1nnc2cnc(-c3cnc(OCC(F)(F)F)c(F)c3)cn12 [Compound 10] | > 50 | < 50 | –
COC(F)(F)c1nnc2cnc(-c3cnc(OC4(C(F)(F)F)CCC4)c(F)c3)cn12 [Compound 11, 3-[difluoro(methoxy)methyl]-6-[5-fluoro-6-[1-(trifluoromethyl)cyclobutoxy]-3-pyridyl]-[1,2,4]triazolo[4,3-a]pyrazine] | > 50 | – | –
COC(F)(F)c1nnc2cnc(-c3ccc(OC4(C(F)(F)F)CCC4)nc3)cn12 [Compound 57] | – | – | C (“C” indicates inhibition of greater than 70%)
COC(F)(F)c1nnc2cnc(-c3ccc(O[C@@H](C)C(F)(F)F)nc3)cn12 [Compound 59, 3-[difluoro(methoxy)methyl]-6-[6-[(1S)-2,2,2-trifluoro-1-methyl-ethoxy]-3-pyridyl]-[1,2,4]triazolo[4,3-a]pyrazine] | > 50 | > 50 | –

Continued, in another order:

inhibition at 1 µM (hNaV1.1-WT) [%] | inhibition at 1 µM (hNaV1.2-WT) [%] | SMILES | NaV 1.6 Assay Data (percent inhibition of INaL at hNaV1.6) (human NaV1.6 (hNaV1.6))
> 50 | – | CCOC(F)(F)c1nnc2ccc(-c3cnc(OCC(F)(F)F)c(F)c3)cn12 [Compound 3, 3-[ethoxy(difluoro)methyl]-6-[5-fluoro-6-(2,2,2-trifluoroethoxy)-3-pyridyl]-[1,2,4]triazolo[4,3-a]pyridine] | –
> 50 | > 50 | COC(F)(F)c1nnc2cnc(-c3cnc(O[C@@H](C)C(F)(F)F)c(F)c3)cn12 [Compound 6B, 3-[difluoro(methoxy)methyl]-6-[5-fluoro-6-[(1S)-2,2,2-trifluoro-1-methyl-ethoxy]-3-pyridyl]-[1,2,4]triazolo[4,3-a]pyrazine] | –
> 50 | < 50 | COC(F)(F)c1nnc2cnc(-c3cnc(OCC(F)(F)F)c(F)c3)cn12 [Compound 53, 3-[difluoro(methoxy)methyl]-6-[5-fluoro-6-(2,2,2-trifluoroethoxy)-3-pyridyl]-[1,2,4]triazolo[4,3-a]pyrazine] | –
> 50 | > 50 | COC(F)(F)c1nnc2cnc(-c3ccc(OC(C)(C)C(F)(F)F)nc3)cn12 [Compound 56, 3-[difluoro(methoxy)methyl]-6-[6-(2,2,2-trifluoro-1,1-dimethyl-ethoxy)-3-pyridyl]-[1,2,4]triazolo[4,3-a]pyrazine] | –
> 50 | > 50 | COC(F)(F)c1nnc2cnc(-c3ccc(O[C@H](C)C(F)(F)F)nc3)cn12 [Compound 62, 3-[difluoro(methoxy)methyl]-6-[6-[(1R)-2,2,2-trifluoro-1-methyl-ethoxy]-3-pyridyl]-[1,2,4]triazolo[4,3-a]pyrazine] | –

From patent US11866439B2, “Ion channel modulators” (Praxis Precision Medicines, Inc., priority 2018, dated 2024)
